Starred links: 1 amine or outer side, 2 acyl side, 3 side chain; linkers in the order of their positions; H or OH if unused. Positions of bridges follow the written chain, without caps; N, C: chain ends. Non-standard residues stand in square brackets, D forms with d. Residues, ends and D or L forms follow the SMILES beside them. Groups on a side chain read outwards from the residue. *: point of attachment. X3 = NC(=O)[C@H](CCCCN*)NC(=O)CC[C@H](NC(=O)CC[C@H](NC(=O)CCCCCCCCCCCCCCC(=O)O)C(=O)O)C(=O)O; X10 = NC(=O)[C@H](CCCCN*)NC(=O)CC[C@H](NC(=O)CC[C@H](NC(=O)CCCc1ccc(I)cc1)C(=O)O)C(=O)O; X5 = NC(=O)[C@H](CCCCN*)NC(=O)CC[C@H](NC(=O)CC[C@H](NC(=O)CCCCCc1ccccc1)C(=O)O)C(=O)O; X17 = NC(=O)[C@H](CCCCN*)NC(=O)CC[C@H](NC(=O)CCCc1ccc(I)cc1)C(=O)O; Trp(1-CH2CO) = O=C([C@H](Cc1cn(CC(=O)[*:3])c2ccccc12)N[*:1])[*:2]; Trp(5-OMe) = COc1ccc2[nH]cc(C[C@H](N)C(=O)O)c2c1; Butanoyl(4-(4-I-phenyl)) = O=C(CCCc1ccc(I)cc1)*; Trp(5-OH) = N[C@@H](Cc1c[nH]c2ccc(O)cc12)C(=O)O; Phe(4-COOH) = N[C@@H](Cc1ccc(C(=O)O)cc1)C(=O)O; X7 = O=C(O)CN1CCC(N[*:1])(C(=O)[*:2])CC1; C16 diacid = O=C(O)CCCCCCCCCCCCCCC(=O)*; γGlu = O=C(O)[C@H](CCC(=O)[*:2])N[*:1]; X2 = O=C([C@@H]1CCCN1[*:2])[*:1]; NMeK = CN[C@@H](CCCCN)C(=O)O; X4 = O=C(CN[*:2])[*:1]; Aib = CC(C)(N)C(=O)O
What follows are molecules tested against T1, Recombinant human GhR-Fc protein (Homo sapiens, UniProt P10912) (assay: SPR binding assay (Biacore T200, single-cycle kinetics) of peptides against immobilized human GhR-Fc). Conditions: SPR, hGhR; Table 1 bicyclic peptides; KD calculated from ka and kd; read-out: KD.
T1 construct: purchased R&D Systems
Experimental: SPR assay was performed using Biacore T200 (cytiva: Former GE Healthcare). After the equilibration of Series S Sensor Chip CM5 (produced by cytiva: Former GE Healthcare) with Running Buffer (HBS-EP with 1% (v/v) DMSO), an EDC/NHS mixture was injected at a flow rate of 10 μL/min for 7 minutes to thereby activate the functional groups on sensor chip. Recombinant human GhR-Fc protein (R&D Systems) in 10 mM Acetate (pH 4.0) was injected immobilized to at a flow rate of 5 μL/min. It took 7 minutes to immobilize the GhR on the substrate surfaces of the sensor chip. Then Ethanolamine was injected at a flow rate of 10 μL/min for 7 minutes. 1M Ethanolamine (aq.) was injected at a flow rate of 10 μL/min for 420 seconds for capping.
Using these Peptide Samples, kinetics of peptides against human GhR-Fc protein were measured. The method adopted for sample measurement was a single-cycle kinetics method. The analysis was conducted using the evaluation software provided with Biacore T200. A DMSO correction curve obtained by solvent correction measurements was applied for the analysis. Kinetics fitting was done on the difference data obtained by subtracting the baseline data from sample measurement data. KD values were calculated based on the association rate constant (ka) and dissociation rate constant (kd). […]

T1 sequence (P10912 with tags, fused parts or gaps limits assumed): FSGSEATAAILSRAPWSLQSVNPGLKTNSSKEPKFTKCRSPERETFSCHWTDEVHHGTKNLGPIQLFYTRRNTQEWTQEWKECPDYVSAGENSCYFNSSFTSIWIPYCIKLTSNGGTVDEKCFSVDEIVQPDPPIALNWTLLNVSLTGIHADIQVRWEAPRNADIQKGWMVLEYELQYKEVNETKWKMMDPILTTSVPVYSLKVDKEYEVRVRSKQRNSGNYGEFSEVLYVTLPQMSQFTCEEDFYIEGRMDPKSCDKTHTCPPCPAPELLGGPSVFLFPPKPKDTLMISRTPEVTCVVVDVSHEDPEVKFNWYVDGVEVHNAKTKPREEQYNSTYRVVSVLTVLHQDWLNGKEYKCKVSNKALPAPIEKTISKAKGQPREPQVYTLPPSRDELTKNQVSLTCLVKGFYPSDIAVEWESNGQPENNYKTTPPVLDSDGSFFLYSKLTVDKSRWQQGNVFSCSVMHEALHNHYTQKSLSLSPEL

| SMILES | Kd [nM] |
| --- | --- |
| CC(C)[C@@H]1NC(=O)[C@H](C(C)C)NC(=O)[C@@H]2CCCCNC(=O)Cn3cc(c4ccccc43)C[C@H](NC(=O)[C@H](CC(N)=O)NC(=O)[C@H](CO)NC1=O)C(=O)N[C@@H](Cc1ccc(C(=O)O)cc1)C(=O)N[C@@H](CCCCN)C(=O)N[C@@H](Cc1c[nH]c3ccc(O)cc13)C(=O)NC(C)(C)C(=O)N[C@@H](C(C)C)C(=O)N[C@H](C(=O)NCCCC[C@H](NC(=O)CC[C@H](NC(=O)CC[C@H](NC(=O)CCCCCc1ccccc1)C(=O)O)C(=O)O)C(N)=O)CSCC(=O)N[C@@H](Cc1ccc(C(=O)O)cc1)C(=O)N2C [Compound 16] ({CH2CO}-[Phe(4-COOH)][NMeK]VVSN[Trp(1-CH2CO)][Phe(4-COOH)]K[Trp(5-OH)][Aib]VC-X5; lactam 2-7; thioether N-13) | 1.93 |
| CC(C)[C@@H]1NC(=O)[C@H](C(C)C)NC(=O)[C@@H]2CCCCNC(=O)Cn3cc(c4ccccc43)C[C@H](NC(=O)[C@H](CC(N)=O)NC(=O)[C@H](CO)NC1=O)C(=O)N[C@@H](Cc1ccc(C(=O)O)cc1)C(=O)N[C@@H](CCCCN)C(=O)N[C@@H](Cc1c[nH]c3ccc(O)cc13)C(=O)NC(C)(C)C(=O)N[C@@H](C(C)C)C(=O)N[C@H](C(=O)NCCCC[C@H](NC(=O)CC[C@H](NC(=O)CC[C@H](NC(=O)CCCCCCCCCCCCCCC(=O)O)C(=O)O)C(=O)O)C(N)=O)CSCC(=O)N[C@@H](Cc1ccc(C(=O)O)cc1)C(=O)N2C [Compound 11] ({CH2CO}-[Phe(4-COOH)][NMeK]VVSN[Trp(1-CH2CO)][Phe(4-COOH)]K[Trp(5-OH)][Aib]VC-X3; lactam 2-7; thioether N-13) | 2.85 |
| CC(C)[C@@H]1NC(=O)[C@H](C(C)C)NC(=O)[C@@H]2CCCCNC(=O)Cn3cc(c4ccccc43)C[C@H](NC(=O)[C@H](CC(N)=O)NC(=O)[C@H](CO)NC1=O)C(=O)N[C@@H](Cc1ccc(C(=O)O)cc1)C(=O)N[C@@H](CCCCN)C(=O)N[C@@H](Cc1c[nH]c3ccc(O)cc13)C(=O)NC1(CCN(CC(=O)O)CC1)C(=O)N[C@@H](C(C)C)C(=O)N[C@H](C(=O)NCCCC[C@H](NC(=O)CC[C@H](NC(=O)CC[C@H](NC(=O)CCCCCCCCCCCCCCC(=O)O)C(=O)O)C(=O)O)C(N)=O)CSCC(=O)N[C@@H](Cc1ccc(O)cc1)C(=O)N2C [Compound 23] ({CH2CO}-Y[NMeK]VVSN[Trp(1-CH2CO)][Phe(4-COOH)]K[Trp(5-OH)][X7]VC-X3; lactam 2-7; thioether N-13) | 2.29 |
| CC(C)[C@@H]1NC(=O)[C@H](C(C)C)NC(=O)[C@@H]2CCCCNC(=O)Cn3cc(c4ccccc43)C[C@H](NC(=O)[C@H](CC(N)=O)NC(=O)[C@H](CO)NC1=O)C(=O)N[C@@H](Cc1ccc(C(=O)O)cc1)C(=O)N[C@@H](CCCCN)C(=O)N[C@@H](Cc1c[nH]c3ccc(O)cc13)C(=O)NC(C)(C)C(=O)N[C@@H](C(C)C)C(=O)N[C@H](C(=O)NCC(=O)N1CCC[C@H]1C(=O)N[C@H](CO)C(=O)N[C@H](CO)C(=O)N[C@H](CO)C(=O)N[C@@H](CCCCNC(=O)CC[C@H](NC(=O)CC[C@H](NC(=O)CCCCCCCCCCCCCCC(=O)O)C(=O)O)C(=O)O)C(N)=O)CSCC(=O)N[C@@H](Cc1ccc(O)cc1)C(=O)N2C [Compound 25] ({CH2CO}-Y[NMeK]VVSN[Trp(1-CH2CO)][Phe(4-COOH)]K[Trp(5-OH)][Aib]VCGP[dS][dS][dS]K([γGlu-γGlu-C16 diacid])-NH2; lactam 2-7; thioether N-13) | 2.23 |

The next lines start with the values.

| Kd [nM] | SMILES |
| --- | --- |
| 0.98 | CC(C)[C@@H]1NC(=O)[C@H](C(C)C)NC(=O)[C@@H]2CCCCNC(=O)Cn3cc(c4ccccc43)C[C@H](NC(=O)[C@H](CC(N)=O)NC(=O)[C@H](CO)NC1=O)C(=O)N[C@@H](Cc1ccc(O)cc1)C(=O)N[C@@H](CCCCN)C(=O)N[C@@H](Cc1c[nH]c3ccc(O)cc13)C(=O)NC(C)(C)C(=O)N[C@@H](C(C)C)C(=O)N[C@H](C(=O)NCCCC[C@H](NC(=O)CC[C@H](NC(=O)CC[C@H](NC(=O)CCCc1ccc(I)cc1)C(=O)O)C(=O)O)C(N)=O)CSCC(=O)N[C@@H](Cc1ccc(O)cc1)C(=O)N2C [Compound 32] ({CH2CO}-Y[NMeK]VVSN[Trp(1-CH2CO)]YK[Trp(5-OH)][Aib]VC-X10; lactam 2-7; thioether N-13) |
| 1.07 | CC(C)[C@@H]1NC(=O)[C@H](C(C)C)NC(=O)[C@@H]2CCCCNC(=O)[C@@H]3CCCN3C(=O)Cn3cc(c4ccccc43)C[C@H](NC(=O)[C@H](CC(N)=O)NC(=O)[C@H](CO)NC1=O)C(=O)N[C@@H](Cc1ccc(O)cc1)C(=O)N[C@@H](CCCCN)C(=O)N[C@@H](Cc1c[nH]c3ccc(O)cc13)C(=O)NC(C)(C)C(=O)N[C@@H](C(C)C)C(=O)N[C@H](C(=O)NCC(N)=O)CSCC(=O)N[C@@H](Cc1ccc(O)cc1)C(=O)N2C [Compound 4] ({CH2CO}-Y[NMeK]VVSN[Trp(1-CH2CO)]YK[Trp(5-OH)][Aib]VCG-NH2; linker 2-7 via X2; thioether N-13) |
| 1.36 | CC(C)[C@@H]1NC(=O)[C@H](C(C)C)NC(=O)[C@@H]2CCCCNC(=O)Cn3cc(c4ccccc43)C[C@H](NC(=O)[C@H](CC(N)=O)NC(=O)[C@H](CO)NC1=O)C(=O)N[C@@H](Cc1ccc(C(=O)O)cc1)C(=O)N[C@@H](CCCCN)C(=O)N[C@@H](Cc1c[nH]c3ccc(O)cc13)C(=O)NC(C)(C)C(=O)N[C@@H](C(C)C)C(=O)N[C@H](C(=O)NCCCC[C@H](NC(=O)CC[C@H](NC(=O)CCCc1ccc(I)cc1)C(=O)O)C(N)=O)CSCC(=O)N[C@@H](Cc1ccc(C(=O)O)cc1)C(=O)N2C [Compound 13] ({CH2CO}-[Phe(4-COOH)][NMeK]VVSN[Trp(1-CH2CO)][Phe(4-COOH)]K[Trp(5-OH)][Aib]VC-X17; lactam 2-7; thioether N-13) |
| 1.22 | CC(C)[C@@H]1NC(=O)[C@H](C(C)C)NC(=O)[C@@H]2CCCCNC(=O)CNC(=O)Cn3cc(c4ccccc43)C[C@H](NC(=O)[C@H](CC(N)=O)NC(=O)[C@H](CO)NC1=O)C(=O)N[C@@H](Cc1ccc(O)cc1)C(=O)N[C@@H](CCCCN)C(=O)N[C@@H](Cc1c[nH]c3ccc(O)cc13)C(=O)NC(C)(C)C(=O)N[C@@H](C(C)C)C(=O)N[C@H](C(=O)NCC(N)=O)CSCC(=O)N[C@@H](Cc1ccc(O)cc1)C(=O)N2C [Compound 2] ({CH2CO}-Y[NMeK]VVSN[Trp(1-CH2CO)]YK[Trp(5-OH)][Aib]VCG-NH2; linker 2-7 via X4; thioether N-13; C-terminus assumed) |

Same assay, conditions: SPR, hGhR; Table 2 monocyclic peptides; KD calculated from ka and kd; read-out: KD

| Kd [nM] | SMILES |
| --- | --- |
| 7.57 | COc1ccc2[nH]cc(C[C@@H]3NC(=O)[C@H](CC(N)=O)NC(=O)[C@H](CO)NC(=O)[C@H](C(C)C)NC(=O)[C@H](C(C)C)NC(=O)[C@H](CCCCNC(=O)CC[C@H](NC(=O)CCCc4ccc(I)cc4)C(=O)O)N(C)C(=O)[C@H](Cc4ccc(O)cc4)NC(=O)CSC[C@@H](C(=O)NCC(=O)N4CCC[C@H]4C(=O)N[C@H](CO)C(=O)N[C@H](CO)C(=O)N[C@H](CO)C(N)=O)NC(=O)[C@H](C(C)C)NC(=O)C4(CCN(CC(=O)O)CC4)NC(=O)[C@H](Cc4c[nH]c5ccc(O)cc45)NC(=O)[C@H](CCCCN)NC(=O)[C@H](Cc4ccc(C(=O)O)cc4)NC3=O)c2c1 [Compound 51] ({CH2CO}-Y[NMeK]([γGlu-Butanoyl(4-(4-I-phenyl))])VVSN[Trp(5-OMe)][Phe(4-COOH)]K[Trp(5-OH)][X7]VCGP[dS][dS][dS]-NH2; thioether N-13) |
